Columns and labels:
Format in all cases: biochemical
KRAS G12D = target: T1, KRAS G12D (Homo sapiens, UniProt P01116, G12D); test: HTRF nucleotide exchange assay (NEA), KRAS G12D; conditions: recombinant human KRAS G12D aa1-188, 2 nM; lowest class = % inhibition at 10 μM
T1 construct: Recombinant human RAS protein (2 nM)
Outline: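 Compound binding to KRAS G12D was measured by HTRF nucleotide exchange. Recombinant human KRAS G12D (aa1-188, N-terminal 6×His-tag, 2 nM) and 2 nM Europium anti-6×His antibody were combined with compound in 5 uL assay buffer in 384-well plates for 60 minutes at room temperature, then 5 ul of 200 nM EDA-GTP-DY647P1 was added for 30 minutes before time-resolved fluorescence reading.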

KRAS G12A = target: T2, KRAS G12A (Homo sapiens, UniProt P01116, G12A); test: HTRF nucleotide exchange assay (NEA), KRAS G12A
T2 construct: 4 nM KRAS; aa1-188 containing the G12V, G12C, G12A or G12S amino acid substitution
T2 sequence (P01116 1-188 isoform P01116-2 G12A): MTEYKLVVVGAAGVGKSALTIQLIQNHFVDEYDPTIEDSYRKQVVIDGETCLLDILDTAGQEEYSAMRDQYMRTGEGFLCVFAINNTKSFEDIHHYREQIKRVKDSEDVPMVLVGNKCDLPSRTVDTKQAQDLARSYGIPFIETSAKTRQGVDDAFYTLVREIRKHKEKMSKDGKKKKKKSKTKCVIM
Method: (§1) The capacity of compounds to bind KRAS G12D, other KRAS mutants and wildtype RAS isoforms was quantified using a HTRF nucleotide exchange assay. Recombinant human RAS protein (2 nM; aa1-188 KRAS WT, HRAS WT, NRAS WT, or KRAS containing the containing the G12D, G13D or Q61H amino acid substitutions, or 4 nM KRAS; aa1-188 containing the G12V, G12C, G12A or G12S amino acid substitution, an N-terminal 6×His-tag and leader sequence), and 2 nM Europium-labeled anti-6×His antibody were mixed in assay buffer (10 mM HEPES pH7.3, 150 mM NaCl, 5 mM MgCl2, 0.05% BSA, 0.0025% NP-40 and 100 mM KF) with various concentrations of compound in a 384-well plate and a volume of 5 uL. After a 60-minute incubation at room temperature, 5 ul of 200 nM EDA-GTP-DY647P1 (diluted in assay buffer) was added to the plate. Following 30-minute incubation at room temperature, time-resolved fluorescence was measured on a PerkinElmer Envision plate reader. DMSO (0.3%) and unlabeled […] (1 μM) or equivalent tool compound were used to generate the Max and Min assay signals, respectively. Data was analysed using a four-parameter logistic model to calculate IC50 values, with at least two independent replicates were performed for each compound.

KRAS Q61H = target: T3, KRAS Q61H (Homo sapiens, UniProt P01116, Q61H); test: HTRF nucleotide exchange assay (NEA), KRAS Q61H
T3 construct: Recombinant human RAS protein (2 nM); aa1-188 KRAS WT
T3 sequence (P01116 1-188 isoform P01116-2 Q61H): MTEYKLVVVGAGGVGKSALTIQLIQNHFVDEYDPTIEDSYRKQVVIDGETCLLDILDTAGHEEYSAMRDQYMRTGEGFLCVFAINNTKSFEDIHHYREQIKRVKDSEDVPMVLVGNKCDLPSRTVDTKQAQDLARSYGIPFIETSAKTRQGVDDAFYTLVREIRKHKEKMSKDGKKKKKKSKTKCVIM
Method: as §1

KRAS G12S = target: T4, KRAS G12S (Homo sapiens, UniProt P01116, G12S); test: HTRF nucleotide exchange assay (NEA), KRAS G12S
T4 construct: 4 nM KRAS; aa1-188 containing the G12V, G12C, G12A or G12S amino acid substitution
T4 sequence (P01116 1-188 isoform P01116-2 G12S): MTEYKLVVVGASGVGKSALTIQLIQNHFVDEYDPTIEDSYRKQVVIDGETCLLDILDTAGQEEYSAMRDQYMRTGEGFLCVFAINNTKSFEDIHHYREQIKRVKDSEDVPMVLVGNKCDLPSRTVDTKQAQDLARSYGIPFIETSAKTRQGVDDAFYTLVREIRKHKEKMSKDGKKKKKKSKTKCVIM
Method: as §1

KRAS G13D = target: T5, KRAS G13D (Homo sapiens, UniProt P01116, G13D); test: HTRF nucleotide exchange assay (NEA), KRAS G13D; conditions: recombinant human KRAS G13D aa1-188, 2 nM; lowest class = % inhibition at 10 μM
T5 construct: Recombinant human RAS protein (2 nM); aa1-188 KRAS WT
T5 sequence (P01116 1-188 isoform P01116-2 G13D): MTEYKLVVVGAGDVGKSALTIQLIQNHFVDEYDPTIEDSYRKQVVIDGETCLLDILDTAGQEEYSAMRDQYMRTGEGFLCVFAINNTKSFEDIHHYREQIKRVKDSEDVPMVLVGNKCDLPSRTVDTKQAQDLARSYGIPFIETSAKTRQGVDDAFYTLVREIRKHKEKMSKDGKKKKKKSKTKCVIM
Method: as §1

KRAS G12V = target: T6, KRAS G12V (Homo sapiens, UniProt P01116, G12V); test: HTRF nucleotide exchange assay (NEA), KRAS G12V
T6 construct: 4 nM KRAS; aa1-188 containing the G12V, G12C, G12A or G12S amino acid substitution
T6 sequence (P01116 1-188 isoform P01116-2 G12V): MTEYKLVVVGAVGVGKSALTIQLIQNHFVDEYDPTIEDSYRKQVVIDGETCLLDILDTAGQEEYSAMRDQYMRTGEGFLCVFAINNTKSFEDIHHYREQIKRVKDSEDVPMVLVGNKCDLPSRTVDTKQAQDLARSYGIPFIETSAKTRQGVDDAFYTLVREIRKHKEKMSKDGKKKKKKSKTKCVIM
Outline: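 After a further 30 minutes at room temperature, time-resolved fluorescence was read on a PerkinElmer Envision. The buffer contained 10 mM HEPES pH7.3, 150 mM NaCl, 5 mM MgCl2, 0.05% BSA, 0.0025% NP-40 and 100 mM KF. DMSO (0.3%) gave the Max signal and unlabeled GOP (1 μM) the Min signal. IC50 came from four-parameter logistic fits of at least two independent replicates.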

KRAS G12C = target: T7, KRAS G12C (Homo sapiens, UniProt P01116, G12C); test: HTRF nucleotide exchange assay (NEA), KRAS G12C
T7 construct: 4 nM KRAS; aa1-188 containing the G12V, G12C, G12A or G12S amino acid substitution
T7 sequence (P01116 1-188 isoform P01116-2 G12C): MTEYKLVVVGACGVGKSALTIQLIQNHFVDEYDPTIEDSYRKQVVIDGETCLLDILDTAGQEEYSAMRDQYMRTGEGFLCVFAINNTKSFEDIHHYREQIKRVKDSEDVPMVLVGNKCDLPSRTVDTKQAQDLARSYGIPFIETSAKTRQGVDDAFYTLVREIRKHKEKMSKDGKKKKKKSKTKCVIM
Outline: (§2)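 His-tagged KRAS aa1-188 (2 nM WT or G13D; 4 nM G12C or G12S) was preincubated with compound and 2 nM Eu-anti-His antibody in HEPES pH7.3 buffer with 100 mM KF for 60 min at room temperature. A 200 nM EDA-GTP-DY647P1 solution was added, and TR-FRET was read after 30 min. IC50 came from a four-parameter logistic fit.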

KRAS WT = target: T8, KRAS WT (Homo sapiens, UniProt P01116); test: HTRF nucleotide exchange assay (NEA), KRAS WT
T8 construct: Recombinant human RAS protein (2 nM); aa1-188 KRAS WT
T8 sequence (P01116 1-188 isoform P01116-2): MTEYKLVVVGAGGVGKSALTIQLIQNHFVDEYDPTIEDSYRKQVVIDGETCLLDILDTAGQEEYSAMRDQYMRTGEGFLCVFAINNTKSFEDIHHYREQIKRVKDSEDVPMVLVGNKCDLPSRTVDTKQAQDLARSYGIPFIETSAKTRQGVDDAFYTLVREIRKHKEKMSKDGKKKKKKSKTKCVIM
Outline: as §2

T1 sequence (P01116 1-188 isoform P01116-2 G12D): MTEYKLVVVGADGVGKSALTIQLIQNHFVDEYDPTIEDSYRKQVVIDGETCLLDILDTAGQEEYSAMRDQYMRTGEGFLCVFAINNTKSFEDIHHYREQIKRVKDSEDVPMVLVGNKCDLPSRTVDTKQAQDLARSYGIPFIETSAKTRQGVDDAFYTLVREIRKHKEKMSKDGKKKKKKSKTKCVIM

Compound | IC50 (KRAS G12D) | IC50 (KRAS G12A) | IC50 (KRAS Q61H) | IC50 (KRAS G12S) | IC50 (KRAS G13D) | IC50 (KRAS G12V) | IC50 (KRAS G12C) | IC50 (KRAS WT)
CC1COCCN(c2nc(OCC34CCCN3CCC4)nc3c(F)c(-c4cc(O)cc5ccccc45)ncc23)C1 (stereo not drawn) [Example 19, 4-[8-fluoro-2-(1,2,3,5,6,7-hexahydropyrrolizin-8-ylmethoxy)-4-(6-methyl-1,4-oxazepan-4-yl)pyrido[4,3-d]pyrimidin-7-yl]naphthalen-2-ol] | 10 to 100 nM | 10 to 100 nM | 100 to 10000 nM | 100 to 10000 nM | > 10000 nM | 10 to 100 nM | 10 to 100 nM | 10 to 100 nM
Oc1cc(-c2ncc3c(N4CCCSCC4)nc(OCC45CCCN4CCC5)nc3c2F)c2ccccc2c1 [Example 38, 4-[8-fluoro-2-(1,2,3,5,6,7-hexahydropyrrolizin-8-ylmethoxy)-4-(1,4-thiazepan-4-yl)pyrido[4,3-d]pyrimidin-7-yl]naphthalen-2-ol] | 10 to 100 nM | ≤ 10 nM | 10 to 100 nM | 10 to 100 nM | > 10000 nM | ≤ 10 nM | ≤ 10 nM | 10 to 100 nM
Oc1cc(-c2ncc3c(N4CCCC5(CCOC5)C4)nc(OCC45CCCN4CCC5)nc3c2F)c2ccccc2c1 (stereo not drawn) [Example 56, 4-[8-fluoro-2-(1,2,3,5,6,7-hexahydropyrrolizin-8-ylmethoxy)-4-(2-oxa-9-azaspiro[4.5]decan-9-yl)pyrido[4,3-d]pyrimidin-7-yl]naphthalen-2-ol] | 100 to 10000 nM | 100 to 10000 nM | 100 to 10000 nM | 100 to 10000 nM | > 10000 nM | 100 to 10000 nM | 100 to 10000 nM | 100 to 10000 nM
